Legend:
[1] = xn = mol fraction of the nth substance listed; details: 298.15 K, 101 kPa, Liquid, Vibrating tube method
[2] = excess molar enthalpy (molar enthalpy of mixing); xn = mol fraction of the nth substance listed; details: 298.15 K, 101 kPa, Liquid, Flow calorimetry
[3] = 298.15 K; 101.33 kPa; Liquid; Vibrating tube method

CCCO [propan-1-ol] + OCC(F)(F)F
Details | mass density [kg/m3]
[1], x2 = 0 | 799.3

CCO [ethanol] + OCC(F)(F)F
Details | mass density [kg/m3]
[1], x2 = 0 | 784.83

OCC(F)(F)F [2,2,2-trifluoroethanol] + O
Details | excess molar enthalpy [kJ/mol] | mass density [kg/m3]
[1], x1 = 0.00478 | – | 1005.99
[1], x1 = 0.01029 | – | 1016.28
[1], x1 = 0.01855 | – | 1031.19
[1], x1 = 0.02226 | – | 1037.71
[1], x1 = 0.1002 | – | 1139.98
[1], x1 = 0.1985 | – | 1215.51
[1], x1 = 0.3 | – | 1265.59
[1], x1 = 0.3983 | – | 1298.93
[1], x1 = 0.4965 | – | 1322.87
[1], x1 = 0.5995 | – | 1341.54
[1], x1 = 0.7303 | – | 1359.16
[1], x1 = 0.839 | – | 1370.38
[1], x1 = 0.9062 | – | 1376.17
[1], x1 = 0.9696 | – | 1381.16
[1], x1 = 0.98 | – | 1381.89
[1], x1 = 0.9899 | – | 1382.59
[1], x1 = 0.995 | – | 1382.97
[1], x1 = 1 | – | 1383.41
[2], x1 = 0.00546 | -0.0288 | –
[2], x1 = 0.01088 | -0.0543 | –
[2], x1 = 0.02028 | -0.0915 | –
[2], x1 = 0.0306 | -0.105 | –
[2], x1 = 0.04018 | -0.103 | –
[2], x1 = 0.04984 | -0.094 | –
[2], x1 = 0.05985 | -0.0818 | –
[2], x1 = 0.07002 | -0.0666 | –
[2], x1 = 0.07952 | -0.051 | –
[2], x1 = 0.08986 | -0.0331 | –
[2], x1 = 0.09937 | -0.014 | –
[2], x1 = 0.11 | 0.0033 | –
[2], x1 = 0.1193 | 0.0221 | –
[2], x1 = 0.1299 | 0.0406 | –
[2], x1 = 0.1385 | 0.0599 | –
[2], x1 = 0.1486 | 0.0802 | –
[2], x1 = 0.1983 | 0.177 | –
[2], x1 = 0.2988 | 0.362 | –
[2], x1 = 0.3988 | 0.5145 | –
[2], x1 = 0.4955 | 0.6264 | –
[2], x1 = 0.5989 | 0.695 | –
[2], x1 = 0.7078 | 0.69 | –
[2], x1 = 0.8079 | 0.5423 | –
[2], x1 = 0.898 | 0.305 | –
[2], x1 = 0.9054 | 0.284 | –
[2], x1 = 0.9202 | 0.24 | –
[2], x1 = 0.9301 | 0.209 | –
[2], x1 = 0.9387 | 0.187 | –
[2], x1 = 0.9528 | 0.144 | –
[2], x1 = 0.9646 | 0.104 | –
[2], x1 = 0.9732 | 0.0792 | –
[2], x1 = 0.988 | 0.0403 | –
[2], x1 = 0.9952 | 0.014 | –

CCCO [propan-1-ol]
Details | mass density [kg/m3]
[3] | 799.3

OCC(F)(F)F [2,2,2-trifluoroethanol] + CCCO
Details | excess molar enthalpy [kJ/mol] | mass density [kg/m3]
[1], x1 = 0.00607 | – | 802.48
[1], x1 = 0.01063 | – | 804.92
[1], x1 = 0.02216 | – | 810.94
[1], x1 = 0.03141 | – | 815.81
[1], x1 = 0.1032 | – | 853.69
[1], x1 = 0.2022 | – | 906.48
[1], x1 = 0.3118 | – | 965.59
[1], x1 = 0.408 | – | 1018.5
[1], x1 = 0.5085 | – | 1075.13
[1], x1 = 0.6057 | – | 1131.49
[1], x1 = 0.7074 | – | 1192.38
[1], x1 = 0.8029 | – | 1251.85
[1], x1 = 0.9023 | – | 1316.56
[1], x1 = 0.9671 | – | 1360.54
[1], x1 = 0.9785 | – | 1368.42
[1], x1 = 0.9898 | – | 1376.24
[1], x1 = 0.9948 | – | 1379.83
[1], x1 = 1 | – | 1383.41
[2], x1 = 0.0054 | -0.0125 | –
[2], x1 = 0.0092 | -0.0242 | –
[2], x1 = 0.02045 | -0.0463 | –
[2], x1 = 0.03258 | -0.0683 | –
[2], x1 = 0.04077 | -0.09 | –
[2], x1 = 0.051 | -0.109 | –
[2], x1 = 0.1013 | -0.184 | –
[2], x1 = 0.2013 | -0.269 | –
[2], x1 = 0.3023 | -0.302 | –
[2], x1 = 0.4041 | -0.305 | –
[2], x1 = 0.4962 | -0.27 | –
[2], x1 = 0.5974 | -0.226 | –
[2], x1 = 0.6998 | -0.175 | –
[2], x1 = 0.7987 | -0.115 | –
[2], x1 = 0.9003 | -0.0574 | –
[2], x1 = 0.9108 | -0.0515 | –
[2], x1 = 0.9211 | -0.0461 | –
[2], x1 = 0.9333 | -0.0409 | –
[2], x1 = 0.9409 | -0.0348 | –
[2], x1 = 0.9486 | -0.0294 | –
[2], x1 = 0.9577 | -0.0242 | –
[2], x1 = 0.9694 | -0.0171 | –
[2], x1 = 0.9839 | -0.0108 | –
[2], x1 = 0.9916 | -0.0045 | –
[2], x1 = 0.9961 | -0.0017 | –

OCC(F)(F)F [2,2,2-trifluoroethanol]
Details | mass density [kg/m3]
[3] | 1383.41

CO [methanol]
Details | mass density [kg/m3]
[3] | 786.3

CCO [ethanol]
Details | mass density [kg/m3]
[3] | 784.83

CO [methanol] + OCC(F)(F)F
Details | mass density [kg/m3]
[1], x2 = 0 | 786.3

OCC(F)(F)F [2,2,2-trifluoroethanol] + CO
Details | excess molar enthalpy [kJ/mol] | mass density [kg/m3]
[1], x1 = 0.00435 | – | 790.62
[1], x1 = 0.00909 | – | 795.28
[1], x1 = 0.01555 | – | 801.57
[1], x1 = 0.01643 | – | 802.43
[1], x1 = 0.06693 | – | 849.62
[1], x1 = 0.1862 | – | 949.42
[1], x1 = 0.3191 | – | 1045.13
[1], x1 = 0.385 | – | 1087.8
[1], x1 = 0.4808 | – | 1144.91
[1], x1 = 0.5797 | – | 1198.76
[1], x1 = 0.6905 | – | 1253.74
[1], x1 = 0.8331 | – | 1317.38
[1], x1 = 0.9196 | – | 1352.57
[1], x1 = 0.9701 | – | 1372.13
[1], x1 = 0.9799 | – | 1375.89
[1], x1 = 0.9913 | – | 1380.01
[1], x1 = 0.9949 | – | 1381.47
[1], x1 = 1 | – | 1383.41
[2], x1 = 0.00548 | -0.0217 | –
[2], x1 = 0.01037 | -0.0397 | –
[2], x1 = 0.02045 | -0.0801 | –
[2], x1 = 0.02995 | -0.118 | –
[2], x1 = 0.04012 | -0.157 | –
[2], x1 = 0.04831 | -0.192 | –
[2], x1 = 0.09938 | -0.3565 | –
[2], x1 = 0.1996 | -0.6111 | –
[2], x1 = 0.297 | -0.7644 | –
[2], x1 = 0.3988 | -0.8466 | –
[2], x1 = 0.4971 | -0.8516 | –
[2], x1 = 0.6027 | -0.8116 | –
[2], x1 = 0.7098 | -0.6762 | –
[2], x1 = 0.8044 | -0.506 | –
[2], x1 = 0.8929 | -0.271 | –
[2], x1 = 0.9016 | -0.245 | –
[2], x1 = 0.9113 | -0.225 | –
[2], x1 = 0.9251 | -0.189 | –
[2], x1 = 0.9337 | -0.162 | –
[2], x1 = 0.9463 | -0.133 | –
[2], x1 = 0.9602 | -0.103 | –
[2], x1 = 0.9707 | -0.0709 | –
[2], x1 = 0.9838 | -0.0366 | –
[2], x1 = 0.9953 | -0.0117 | –
[2], x1 = 0.9987 | -0.0027 | –

OCC(F)(F)F [2,2,2-trifluoroethanol] + CCO
Details | excess molar enthalpy [kJ/mol] | mass density [kg/m3]
[1], x1 = 0.00449 | – | 788
[1], x1 = 0.00898 | – | 791.1
[1], x1 = 0.02012 | – | 798.87
[1], x1 = 0.02992 | – | 805.61
[1], x1 = 0.04022 | – | 812.7
[1], x1 = 0.05208 | – | 820.82
[1], x1 = 0.1002 | – | 853.17
[1], x1 = 0.2003 | – | 918.54
[1], x1 = 0.3001 | – | 981.36
[1], x1 = 0.3999 | – | 1042.13
[1], x1 = 0.5003 | – | 1101.6
[1], x1 = 0.6012 | – | 1160.07
[1], x1 = 0.7025 | – | 1217.72
[1], x1 = 0.7851 | – | 1264.15
[1], x1 = 0.9109 | – | 1334.11
[1], x1 = 0.92 | – | 1339.16
[1], x1 = 0.9299 | – | 1344.65
[1], x1 = 0.9497 | – | 1355.58
[1], x1 = 0.9597 | – | 1361.14
[1], x1 = 0.9697 | – | 1366.65
[1], x1 = 0.9798 | – | 1372.26
[1], x1 = 0.9897 | – | 1377.67
[1], x1 = 1 | – | 1383.41
[2], x1 = 0.00586 | -0.0197 | –
[2], x1 = 0.0106 | -0.0396 | –
[2], x1 = 0.02013 | -0.0808 | –
[2], x1 = 0.03032 | -0.119 | –
[2], x1 = 0.03992 | -0.154 | –
[2], x1 = 0.04851 | -0.187 | –
[2], x1 = 0.06244 | -0.216 | –
[2], x1 = 0.07146 | -0.249 | –
[2], x1 = 0.08127 | -0.279 | –
[2], x1 = 0.09052 | -0.309 | –
[2], x1 = 0.09891 | -0.333 | –
[2], x1 = 0.199 | -0.5257 | –
[2], x1 = 0.2992 | -0.6289 | –
[2], x1 = 0.3995 | -0.6709 | –
[2], x1 = 0.5039 | -0.6569 | –
[2], x1 = 0.6029 | -0.5803 | –
[2], x1 = 0.7014 | -0.4935 | –
[2], x1 = 0.7964 | -0.3529 | –
[2], x1 = 0.8945 | -0.196 | –
[2], x1 = 0.9072 | -0.178 | –
[2], x1 = 0.916 | -0.16 | –
[2], x1 = 0.9278 | -0.144 | –
[2], x1 = 0.9389 | -0.123 | –
[2], x1 = 0.9516 | -0.101 | –
[2], x1 = 0.9618 | -0.0833 | –
[2], x1 = 0.9729 | -0.0583 | –
[2], x1 = 0.9826 | -0.0377 | –
[2], x1 = 0.992 | -0.0149 | –
[2], x1 = 0.9988 | -0.0038 | –
